Measurements taken from ChEMBL document CHEMBL5154777, “Alternative approaches utilizing click chemistry to develop next-generation analogs of solithromycin” (2022).
In brackets after ≈: the same amount, converted by molar mass.

Key:
Format in all cases: functional
Escherichia coli [1] = experiment: Antibacterial activity against Escherichia coli MG1655
Enterococcus faecium = experiment: Antibacterial activity against Enterococcus faecium NCTC 7171
Pseudomonas aeruginosa = experiment: Antibacterial activity against Pseudomonas aeruginosa HER 1018
Enterobacter cloacae = experiment: Antibacterial activity against Enterobacter cloacae ATCC 13047
Staphylococcus aureus [2] = experiment: Antibacterial activity against methicillin-resistant Staphylococcus aureus ATCC 43300
Acinetobacter baumannii = experiment: Antibacterial activity against Acinetobacter baumannii 2208 ATCC 19606
Klebsiella pneumoniae = experiment: Antibacterial activity against Klebsiella pneumoniae BAA 2146
Staphylococcus aureus [3] = experiment: Antibacterial activity against Staphylococcus aureus UCN18
Escherichia coli [4] = experiment: Antibacterial activity against Escherichia coli SQ171
Escherichia coli [5] = experiment: Antibacterial activity against Escherichia coli DK2058G
Escherichia coli [6] = experiment: Antibacterial activity against Escherichia coli DK3535
Staphylococcus aureus [7] = experiment: Antibacterial activity against Staphylococcus aureus UCN17
Escherichia coli [8] = experiment: Antibacterial activity against Escherichia coli DK
Staphylococcus aureus [9] = experiment: Antibacterial activity against Staphylococcus aureus UCN14
Escherichia coli [10] = experiment: Antibacterial activity against Escherichia coli SQ171 2058G
Staphylococcus aureus [11] = experiment: Antibacterial activity against Staphylococcus aureus ATCC 29213

SMILES | MIC (Escherichia coli [1]) | MIC (Enterococcus faecium) | MIC (Pseudomonas aeruginosa) | MIC (Enterobacter cloacae) | MIC (Staphylococcus aureus [2]) | MIC (Acinetobacter baumannii) | MIC (Klebsiella pneumoniae) | MIC (Staphylococcus aureus [3]) | MIC (Escherichia coli [4]) | MIC (Escherichia coli [5]) | MIC (Escherichia coli [6]) | MIC (Staphylococcus aureus [7]) | MIC (Escherichia coli [8]) | MIC (Staphylococcus aureus [9]) | MIC (Escherichia coli [10]) | MIC (Staphylococcus aureus [11])
[N-]=[N+]=NC[C@@H]1CN(c2ccc(N3CCOCC3)c(F)c2)C(=O)O1 | > 200 µM | > 200 µM | > 200 µM | > 200 µM | > 200 µM | > 200 µM | > 200 µM |  |  |  |  |  |  |  |  | 
[N-]=[N+]=NC[C@H]1CN(c2ccc(N3CCOCC3)c(F)c2)C(=O)O1 | > 200 µM | > 200 µM | > 200 µM | > 200 µM | > 200 µM | > 200 µM | > 200 µM |  |  |  |  |  |  |  |  | 
CC[C@H]1OC(=O)[C@@](C)(F)C(=O)[C@H](C)[C@@H](O[C@@H]2O[C@H](C)C[C@H](N(C)CCc3cn(C[C@@H]4CN(c5ccc(N6CCOCC6)c(F)c5)C(=O)O4)nn3)[C@H]2O)[C@](C)(OC)C[C@@H](C)C(=O)[C@H](C)C2N(CCCCn3cc(-c4cccc(N)c4)nn3)C(=O)O[C@@]21C (single isomer, unassigned) | > 200 µM | > 200 µM | > 200 µM | > 200 µM | 200 µM (≈ 241 µg/mL) | > 200 µM | > 200 µM |  |  |  |  |  |  |  |  | 
CC[C@H]1OC(=O)[C@@](C)(F)C(=O)[C@H](C)[C@@H](O[C@@H]2O[C@H](C)C[C@H](N(C)C)[C@H]2O)[C@](C)(OC)C[C@@H](C)C(=O)[C@H](C)C2N(C/C=C/Cn3cc(-c4cccs4)nn3)C(=O)O[C@@]21C (single isomer, unassigned) |  |  |  |  |  |  |  | 9.6 µM (≈ 8.01 µg/mL) | > 38 µM | 2.4 µM (≈ 2 µg/mL) | 2.4 µM (≈ 2 µg/mL) | 9.6 µM (≈ 8.01 µg/mL) | 2.4 µM (≈ 2 µg/mL) | 19 µM (≈ 15.8 µg/mL) | > 38 µM | < 0.075 µM
CC[C@H]1OC(=O)[C@@](C)(F)C(=O)[C@H](C)[C@@H](O[C@@H]2O[C@H](C)C[C@H](N(C)CCCn3cc(-c4cccnc4)nn3)[C@H]2O)[C@](C)(OC)C[C@@H](C)C(=O)[C@H](C)C2N(CCCCn3cc(-c4cccc(N)c4)nn3)C(=O)O[C@@]21C (single isomer, unassigned) |  |  |  |  |  |  |  | > 130 µM | > 31 µM | 7.9 µM (≈ 8.04 µg/mL) | 7.9 µM (≈ 8.04 µg/mL) | > 130 µM | 3.9 µM (≈ 3.97 µg/mL) | > 130 µM | > 31 µM | 3.9 µM (≈ 3.97 µg/mL)
CC[C@H]1OC(=O)[C@@](C)(F)C(=O)[C@H](C)[C@@H](O[C@@H]2O[C@H](C)C[C@H](N(C)CCCCn3cc(-c4cccnc4)nn3)[C@H]2O)[C@](C)(OC)C[C@@H](C)C(=O)[C@H](C)C2N(CCCCn3cc(-c4cccc(N)c4)nn3)C(=O)O[C@@]21C (single isomer, unassigned) |  |  |  |  |  |  |  | > 120 µM | > 31 µM | 7.8 µM (≈ 8.04 µg/mL) | 7.8 µM (≈ 8.04 µg/mL) | > 120 µM | 7.8 µM (≈ 8.04 µg/mL) | > 120 µM | > 31 µM | 1.9 µM (≈ 1.96 µg/mL)
CC[C@H]1OC(=O)[C@@](C)(F)C(=O)[C@H](C)[C@@H](O[C@@H]2O[C@H](C)C[C@H](N(C)CCCCn3cc(-c4cccc(N)c4)nn3)[C@H]2O)[C@](C)(OC)C[C@@H](C)C(=O)[C@H](C)C2N(CCCCn3cc(-c4cccc(N)c4)nn3)C(=O)O[C@@]21C (single isomer, unassigned) |  |  |  |  |  |  |  | > 120 µM | > 31 µM | > 31 µM | 3.8 µM (≈ 3.97 µg/mL) | > 120 µM | 7.7 µM (≈ 8.05 µg/mL) | > 120 µM | > 31 µM | 0.96 µM (≈ 1 µg/mL)
CC[C@H]1OC(=O)[C@@](C)(F)C(=O)[C@H](C)[C@@H](O[C@@H]2O[C@H](C)C[C@H](N(C)CCn3cc(-c4cccc(N)c4)nn3)[C@H]2O)[C@](C)(OC)C[C@@H](C)C(=O)[C@H](C)C2N(CCCCn3cc(-c4cccc(N)c4)nn3)C(=O)O[C@@]21C (single isomer, unassigned) |  |  |  |  |  |  |  | > 130 µM | > 31 µM | > 31 µM | > 31 µM | > 130 µM | > 31 µM | > 130 µM | > 31 µM | 0.49 µM (≈ 0.498 µg/mL)
CC[C@H]1OC(=O)[C@@](C)(F)C(=O)[C@H](C)[C@@H](O[C@@H]2O[C@H](C)C[C@H](N(C)C)[C@H]2O)[C@](C)(OC)C[C@@H](C)C(=O)[C@H](C)C2N(C/C=C/Cn3cc(-c4cccc(O)c4)nn3)C(=O)O[C@@]21C (single isomer, unassigned) |  |  |  |  |  |  |  | 4.7 µM (≈ 3.97 µg/mL) | > 38 µM | 2.4 µM (≈ 2.03 µg/mL) | 2.4 µM (≈ 2.03 µg/mL) | 9.5 µM (≈ 8.02 µg/mL) | 2.4 µM (≈ 2.03 µg/mL) | 9.5 µM (≈ 8.02 µg/mL) | > 38 µM | < 0.074 µM
CC[C@H]1OC(=O)[C@@](C)(F)C(=O)[C@H](C)[C@@H](O[C@@H]2O[C@H](C)C[C@H](N(C)CCc3cn(C[C@H]4CN(c5ccc(N6CCOCC6)c(F)c5)C(=O)O4)nn3)[C@H]2O)[C@](C)(OC)C[C@@H](C)C(=O)[C@H](C)C2N(CCCCn3cc(-c4cccc(N)c4)nn3)C(=O)O[C@@]21C (single isomer, unassigned) | > 200 µM | 0.2 µM (≈ 0.241 µg/mL) | > 200 µM | > 200 µM | 0.8 µM (≈ 0.964 µg/mL) | > 200 µM | > 200 µM |  |  |  |  |  |  |  |  | 
CC[C@H]1OC(=O)[C@@](C)(F)C(=O)[C@H](C)[C@@H](O[C@@H]2O[C@H](C)C[C@H](N(C)CCn3cc(-c4cccnc4)nn3)[C@H]2O)[C@](C)(OC)C[C@@H](C)C(=O)[C@H](C)C2N(CCCCn3cc(-c4cccc(N)c4)nn3)C(=O)O[C@@]21C (single isomer, unassigned) |  |  |  |  |  |  |  | > 130 µM | > 32 µM | > 32 µM | > 32 µM | > 130 µM | > 32 µM | > 130 µM | > 32 µM | 0.25 µM (≈ 0.251 µg/mL)
CC[C@H]1OC(=O)[C@@](C)(F)C(=O)[C@H](C)[C@@H](O[C@@H]2O[C@H](C)C[C@H](N(C)C)[C@H]2O)[C@](C)(OC)C[C@@H](C)C(=O)[C@H](C)C2N(C/C=C/Cn3cc(-c4cccc(N)c4)nn3)C(=O)O[C@@]21C (single isomer, unassigned) |  |  |  |  |  |  |  | < 0.074 µM | > 38 µM | 2.4 µM (≈ 2.02 µg/mL) | 2 µM (≈ 1.69 µg/mL) | 0.15 µM (≈ 0.126 µg/mL) | 2.4 µM (≈ 2.02 µg/mL) | 2.4 µM (≈ 2.02 µg/mL) | > 38 µM | < 0.074 µM
C=CCN(C)[C@H]1C[C@@H](C)O[C@@H](O[C@@H]2[C@@H](C)C(=O)[C@](C)(F)C(=O)O[C@H](CC)[C@@]3(C)OC(=O)N(CCCCN=[N+]=[N-])C3[C@@H](C)C(=O)[C@H](C)C[C@@]2(C)OC)[C@@H]1O (single isomer, unassigned) |  |  |  |  |  |  |  | > 170 µM | > 42 µM | 5.3 µM (≈ 4 µg/mL) | 11 µM (≈ 8.29 µg/mL) | > 170 µM | 0.66 µM (≈ 0.498 µg/mL) | > 170 µM | > 42 µM | 0.66 µM (≈ 0.498 µg/mL)
CC[C@H]1OC(=O)[C@@](C)(F)C(=O)[C@H](C)[C@@H](O[C@@H]2O[C@H](C)C[C@H](N(C)CCCn3cc(-c4cccc(N)c4)nn3)[C@H]2O)[C@](C)(OC)C[C@@H](C)C(=O)[C@H](C)C2N(CCCCn3cc(-c4cccc(N)c4)nn3)C(=O)O[C@@]21C (single isomer, unassigned) |  |  |  |  |  |  |  | > 120 µM | > 31 µM | 16 µM (≈ 16.5 µg/mL) | 3.9 µM (≈ 4.02 µg/mL) | > 120 µM | 3.9 µM (≈ 4.02 µg/mL) | > 120 µM | > 31 µM | 0.97 µM (≈ 1 µg/mL)
C=CCN(C)[C@H]1C[C@@H](C)O[C@@H](O[C@@H]2[C@@H](C)C(=O)[C@](C)(F)C(=O)O[C@H](CC)[C@@]3(C)OC(=O)N(CCCCn4cc(-c5cccc(N)c5)nn4)C3[C@@H](C)C(=O)[C@H](C)C[C@@]2(C)OC)[C@@H]1O (single isomer, unassigned) |  |  |  |  |  |  |  | 150 µM (≈ 131 µg/mL) | > 37 µM | 2.3 µM (≈ 2 µg/mL) | 4.6 µM (≈ 4.01 µg/mL) | 150 µM (≈ 131 µg/mL) | 2.3 µM (≈ 2 µg/mL) | > 150 µM | > 37 µM | 1.1 µM (≈ 0.958 µg/mL)
CC(=O)NC[C@H]1CN(c2ccc(N3CCOCC3)c(F)c2)C(=O)O1 [LINEZOLID] | > 200 µM | 6 µM (≈ 2.02 µg/mL) | > 200 µM | > 200 µM | 6 µM (≈ 2.02 µg/mL) | > 200 µM | > 200 µM |  |  |  |  |  |  |  |  | 
